The NIST ThermoML archive (doi:10.1016/j.jct.2016.09.005)

Conditions: Brillouin Light Scattering

CC(C)OC(C)C [diisopropyl ether]
Conditions	speed of sound [m/s]
432.85 K, 1000 kPa, Liquid	434.31
433.18 K, 2500 kPa, Liquid	464.16
433.27 K, 4000 kPa, Liquid	498.85
437.97 K, 5500 kPa, Liquid	515.55
438.45 K, 8500 kPa, Liquid	566.84
438.48 K, 10000 kPa, Liquid	599.89
438.69 K, 7000 kPa, Liquid	537.87
438.94 K, 2500 kPa, Liquid	440.93
439.03 K, 4000 kPa, Liquid	475.92
442.55 K, 7000 kPa, Liquid	521.69
442.6 K, 4000 kPa, Liquid	461.81
442.85 K, 8500 kPa, Liquid	551.1
442.96 K, 10000 kPa, Liquid	583.95
443.09 K, 5500 kPa, Liquid	494.52
443.48 K, 2500 kPa, Liquid	424.11
447.46 K, 2500 kPa, Liquid	407.02
447.46 K, 10000 kPa, Liquid	569.2
447.74 K, 5500 kPa, Liquid	476.22
448.06 K, 8500 kPa, Liquid	530.98
448.43 K, 4000 kPa, Liquid	436.29
448.7 K, 7000 kPa, Liquid	505.01
453.11 K, 2500 kPa, Liquid	380.57
453.12 K, 5500 kPa, Liquid	456.86
453.5 K, 4000 kPa, Liquid	418.12
453.57 K, 10000 kPa, Liquid	548.35
453.75 K, 8500 kPa, Liquid	518.95
454.24 K, 7000 kPa, Liquid	488.02
457.15 K, 2500 kPa, Liquid	366.77
457.57 K, 10000 kPa, Liquid	539.84
457.63 K, 8500 kPa, Liquid	503.76
457.7 K, 7000 kPa, Liquid	475.35
457.87 K, 4000 kPa, Liquid	397.64
458.03 K, 5500 kPa, Liquid	440.35
462.93 K, 4000 kPa, Liquid	377.89
463.16 K, 7000 kPa, Liquid	457.86
463.6 K, 8500 kPa, Liquid	488.56
463.85 K, 10000 kPa, Liquid	521.08
463.88 K, 2500 kPa, Liquid	338.04
464.11 K, 5500 kPa, Liquid	418.4
467.52 K, 5500 kPa, Liquid	406.91
467.53 K, 10000 kPa, Liquid	508.72
467.58 K, 7000 kPa, Liquid	440.63
467.74 K, 8500 kPa, Liquid	473.19
468.21 K, 4000 kPa, Liquid	357.71
472.64 K, 8500 kPa, Liquid	459.74
472.67 K, 7000 kPa, Liquid	424.62
472.84 K, 5500 kPa, Liquid	384.97
472.94 K, 4000 kPa, Liquid	339.72
473.24 K, 10000 kPa, Liquid	491.15
505.6 K, 3500 kPa, Fluid (supercritical or subcritical phases)	132.11
505.8 K, 4500 kPa, Fluid (supercritical or subcritical phases)	215.46
506.21 K, 5500 kPa, Fluid (supercritical or subcritical phases)	263.63
506.39 K, 6500 kPa, Fluid (supercritical or subcritical phases)	301.19
509.39 K, 3500 kPa, Fluid (supercritical or subcritical phases)	114.34
509.87 K, 4500 kPa, Fluid (supercritical or subcritical phases)	196.58
510.29 K, 5500 kPa, Fluid (supercritical or subcritical phases)	244.35
510.5 K, 6500 kPa, Fluid (supercritical or subcritical phases)	281.9
516.22 K, 3500 kPa, Fluid (supercritical or subcritical phases)	102.13
516.95 K, 6500 kPa, Fluid (supercritical or subcritical phases)	262.61
517.48 K, 4500 kPa, Fluid (supercritical or subcritical phases)	161.27
518.73 K, 5500 kPa, Fluid (supercritical or subcritical phases)	206.26
519.67 K, 3500 kPa, Fluid (supercritical or subcritical phases)	108
520.35 K, 4500 kPa, Fluid (supercritical or subcritical phases)	144.87
521.7 K, 5500 kPa, Fluid (supercritical or subcritical phases)	199.75
522.21 K, 6500 kPa, Fluid (supercritical or subcritical phases)	243.32
526.46 K, 3500 kPa, Fluid (supercritical or subcritical phases)	116.09
527.21 K, 4500 kPa, Fluid (supercritical or subcritical phases)	126.63
528.59 K, 5500 kPa, Fluid (supercritical or subcritical phases)	173.63
529.79 K, 6500 kPa, Fluid (supercritical or subcritical phases)	222.12
532.59 K, 4500 kPa, Fluid (supercritical or subcritical phases)	114.85
533.14 K, 5500 kPa, Fluid (supercritical or subcritical phases)	166.48
533.59 K, 6500 kPa, Fluid (supercritical or subcritical phases)	210.67
534.66 K, 4500 kPa, Fluid (supercritical or subcritical phases)	113.71
535.53 K, 5500 kPa, Fluid (supercritical or subcritical phases)	159.52
536.07 K, 6500 kPa, Fluid (supercritical or subcritical phases)	205.77
536.58 K, 3500 kPa, Fluid (supercritical or subcritical phases)	132.72
540.66 K, 4500 kPa, Fluid (supercritical or subcritical phases)	121.9
541.18 K, 5500 kPa, Fluid (supercritical or subcritical phases)	155.19

speed of sound [m/s]
Conditions	443.46 K	453.54 K	457.54 K	463 K	468.31 K	473.8 K	478.69 K	483.1 K	487.42 K	492.48 K
Gas	140.99	135.34	131.58	125.98	121.95	115.5	108.41	103.7	98.66	91.71
Liquid	384.46	336.71	315.85	290.41	263.51	237.38	210.25	185.8	162.27	135.68
